{"source": "patent US12558428B2", "about": "“Heterobifunctional compounds and their use in treating disease” (Halda Therapeutics OpCo, Inc., priority 2024, dated 2026)", "key": {"[1]": {"test_system": "T-Rex 293 cells lacking increased expression of estrogen receptor alpha protein", "assay": "Cellular growth inhibition assay, T-Rex 293 cells, (−) doxycycline", "format": "cell-based", "details": "T-REx-293, 72 h, Table 7-A; T-Rex 293 cells without doxycycline (lacking increased ERα expression); 72 hours; CellTiter-Glo; read-out: (−) Dox GI50", "experimental": "(§1) Exemplary compounds were tested for the ability to inhibit the proliferation of the following types of cells: (i) a T-Rex 293 cell line having increased expression of estrogen receptor alpha protein from exposure to doxycycline and (ii) a T-Rex 293 cell line lacking increased expression of estrogen receptor alpha protein.\n(§2) The following types of cells were prepared for this experiment: (i) a T-Rex 293 cell line having increased expression of estrogen receptor alpha protein from exposure to doxycycline and (ii) a T-Rex 293 cell line lacking increased expression of estrogen receptor alpha protein. The ability of the test compounds to inhibit proliferation of the foregoing cell types was evaluated according to the procedures set forth below.\n(§3) The doxycycline-inducible estrogen receptor alpha protein expressing cell line was established using the following protocol: T-Rex 293 cells were purchased from Invitrogen (Cat #R71007) and transfected using Lipofectamine 2000 with the wild-type estrogen receptor alpha protein sequence cloned into the pcDNA4/TO vector. Transfected cells were selected using 400 μg/mL Zeocin (Invitrogen Cat #R25001). Following selection, single clones were raised and maintained in Dulbecco's Modified Eagle Medium (DMEM) supplemented with 10% w/w Tetracycline-free fetal bovine serum (FBS) and 250 μg/mL Zeocin. Clones were analyzed for expression of estrogen receptor alpha protein in the presence and absence of 3 ng/mL doxycycline (Sigma Cat #D9891), and a single doxycycline-inducible clone (hereinafter “SC”) was selected for use in downstream assays.\n(§4) The SC cells were seeded on poly-D-lysine coated, black clear-bottom 384-well plates at 2500/well, in 25 μL Phenol Red Free Dulbecco's Modified Eagle Medium (DMEM) supplemented with 10% w/w charcoal-dextran treated fetal bovine serum (FBS) and 1% w/w pen-strep, with or without 3 ng/mL doxycycline. Pen-Strep is a commercially available mixture of penicillin G and streptomycin, which is used in mammalian cell culture media to prevent bacterial contamination. Phenol Red Free Dulbecco's Modified Eagle Medium (DMEM) supplemented with 10% w/w charcoal-dextran treated fetal bovine serum (FBS) and 1% w/w pen-strep, with or without 3 ng/mL doxycycline is herein referred to as Treatment Medium. Following seeding of cells in the plates, the plates were spun at 300×g for 30 seconds, then equilibrated to room temperature for 30 minutes, and then deposited in a humidified tissue culture incubator maintained at 37° C. with 5% CO2.\n(§5) At 24 hours after seeding of the cells, dilutions of test compound were prepared in DMSO and dissolved in Treatment Medium, to achieve a final DMSO concentration of 0.5% w/w, thereby providing the Test Compound Solution. A 25 μL aliquot of the Test Compound Solution was added to cells in the well plates. An equal volume of a solution containing DMSO and Treatment Medium was used as a negative control. Following treatment of cells with Test Compound Solution or said equal volume of a solution containing DMSO and Treatment Medium, the plates were spun at 300×g for 30 seconds, and then left in an incubator for 72 hours.\n(§6) At the end of the treatment duration, cell viability was quantified with CellTiter-Glo 2.0 reagent (Promega Cat #G9243). For this purpose, plates were equilibrated to room temperature for 30 minutes, and then 25 μL of CellTiter-Glo 2.0 reagent was added to cells in the plate wells. Plates were then agitated on a shaker for two minutes at 500 rpm and subsequently incubated at room temperature for 10 minutes. Following incubation, the plates were spun at 3000×g for 30 seconds, then sealed with an optical adhesive cover, and luminescence readings were measured with an EnVision Plate Reader (Perkin Elmer).\n(§7) Data was normalized using zero luminescence for baseline. […]"}, "[2]": {"test_system": "T-Rex 293 cells having increased expression of estrogen receptor alpha protein", "assay": "Cellular growth inhibition assay, T-Rex 293 cells, (+) doxycycline", "format": "cell-based", "details": "T-REx-293, 72 h, Table 7-A; T-Rex 293 cells with doxycycline (increased ERα expression); 72 hours; CellTiter-Glo; read-out: (+) Dox GI50", "experimental": "as §1, §2, §3, §4, §5, §6, §7"}}}
{"smiles": "COc1cc(N2CCN(CC3(O)CCN(c4ccc(C5=N[C@@H](C)c6nnc(C)n6-c6sc(C)c(C)c65)cc4)CC3)CC2)c(F)cc1[C@@H]1c2ccc(O)cc2CC[C@@H]1c1ccc(F)cc1", "note": "[III-320]", "values": [{"measurement": "GI50", "setting": "[1]", "value": "500 to 2500", "unit": "nM"}, {"measurement": "GI50", "setting": "[2]", "value": "< 50", "unit": "nM"}]}
{"smiles": "Cc1sc2c(c1C)C(c1ccc(N3CCC(CN4CCN(c5ccc([C@@H]6c7ccc(O)cc7CC[C@@H]6c6ccccc6F)c(F)c5)CC4)CC3)cc1)=N[C@@H](C)c1nnc(C)n1-2", "note": "[III-323]", "values": [{"measurement": "GI50", "setting": "[1]", "value": "500 to 2500", "unit": "nM"}, {"measurement": "GI50", "setting": "[2]", "value": "< 50", "unit": "nM"}]}
{"smiles": "Cc1sc2c(c1C)C(c1ccc(N3CCC(CN4CCN(c5ccc([C@H]6c7ccc(O)cc7CC[C@H]6c6ccccc6F)c(F)c5)CC4)CC3)cc1)=N[C@@H](C)c1nnc(C)n1-2", "note": "[III-324]", "values": [{"measurement": "GI50", "setting": "[1]", "value": "50 to 500", "unit": "nM"}, {"measurement": "GI50", "setting": "[2]", "value": "50 to 500", "unit": "nM"}]}
{"smiles": "Cc1sc2c(c1C)C(c1ccc(N3CCC(CN4CCN(c5ccc([C@@H]6c7ccc(O)cc7CC[C@@H]6c6cccc(F)c6)c(F)c5)CC4)CC3)cc1)=N[C@@H](C)c1nnc(C)n1-2", "note": "[III-325]", "values": [{"measurement": "GI50", "setting": "[1]", "value": "500 to 2500", "unit": "nM"}, {"measurement": "GI50", "setting": "[2]", "value": "50 to 500", "unit": "nM"}]}
{"smiles": "Cc1sc2c(c1C)C(c1ccc(N3CCC(CN4CCN(c5ccc([C@H]6c7ccc(O)cc7CC[C@H]6c6cccc(F)c6)c(F)c5)CC4)CC3)cc1)=N[C@@H](C)c1nnc(C)n1-2", "note": "[III-326]", "values": [{"measurement": "GI50", "setting": "[1]", "value": "500 to 2500", "unit": "nM"}, {"measurement": "GI50", "setting": "[2]", "value": "500 to 2500", "unit": "nM"}]}
{"smiles": "COc1cc(N2CCN(CC3(O)CCN(c4ccc(C5=N[C@@H](C)c6nnc(C)n6-c6sc(C)c(C)c65)c(F)c4)CC3)CC2)ccc1[C@@H]1c2ccc(O)cc2CC[C@@H]1c1ccc(F)cc1", "note": "[III-328, 1-(3-fluoro-4-((6S)-2,3,6,9-tetramethyl-6H-thieno[3,2-f][1,2,4]triazolo[4,3-a][1,4]diazepin-4-yl)phenyl)-4-((4-(4-((1S,2S)-2-(4-fluorophenyl)-6-hydroxy-1,2,3,4-tetrahydronaphthalen-1-yl)-3-methoxyphenyl)piperazin-1-yl)methyl)piperidin-4-ol]", "values": [{"measurement": "GI50", "setting": "[1]", "value": "500 to 2500", "unit": "nM"}, {"measurement": "GI50", "setting": "[2]", "value": "< 50", "unit": "nM"}]}
{"smiles": "COc1cc(N2CCN(CC3CCN(c4ccc(C5=N[C@@H](C)c6nnc(C)n6-c6sc(C)c(C)c65)cc4)CC3)CC2)ccc1[C@H]1c2ccc(O)cc2CC[C@H]1c1ccc(C)cc1", "note": "[III-329]", "values": [{"measurement": "GI50", "setting": "[1]", "value": "50 to 500", "unit": "nM"}, {"measurement": "GI50", "setting": "[2]", "value": "50 to 500", "unit": "nM"}]}
{"smiles": "COc1cc(N2CCN(CC3CCN(c4ccc(C5=N[C@@H](C)c6nnc(C)n6-c6sc(C)c(C)c65)cc4)CC3)CC2)ccc1[C@@H]1c2ccc(O)cc2CC[C@@H]1c1ccc(C)cc1", "note": "[III-330]", "values": [{"measurement": "GI50", "setting": "[1]", "value": "50 to 500", "unit": "nM"}, {"measurement": "GI50", "setting": "[2]", "value": "< 50", "unit": "nM"}]}
{"smiles": "COc1cc(N2CCN(CC3CCN(c4ccc(C5=N[C@@H](C)c6nnc(C)n6-c6sc(C)c(C)c65)c(F)c4)CC3)CC2)ccc1[C@H]1c2ccc(O)cc2CC[C@H]1c1ccc(C)cc1", "note": "[III-331]", "values": [{"measurement": "GI50", "setting": "[1]", "value": "500 to 2500", "unit": "nM"}, {"measurement": "GI50", "setting": "[2]", "value": "500 to 2500", "unit": "nM"}]}
{"smiles": "COc1cc(N2CCN(CC3CCN(c4ccc(C5=N[C@@H](C)c6nnc(C)n6-c6sc(C)c(C)c65)c(F)c4)CC3)CC2)ccc1[C@@H]1c2ccc(O)cc2CC[C@@H]1c1ccc(C)cc1", "note": "[III-332]", "values": [{"measurement": "GI50", "setting": "[1]", "value": "50 to 500", "unit": "nM"}, {"measurement": "GI50", "setting": "[2]", "value": "< 50", "unit": "nM"}]}
{"smiles": "Cc1sc2c(c1C)C(c1ccc(N3CCC(O)(CN4CCC(c5cc(F)c([C@H]6c7ccc(O)cc7CC[C@H]6c6ccc(F)cc6)c(F)c5)CC4)CC3)cc1F)=N[C@@H](C)c1nnc(C)n1-2", "note": "[III-337, 4-((4-(3,5-difluoro-4-((1R,2R)-2-(4-fluorophenyl)-6-hydroxy-1,2,3,4-tetrahydronaphthalen-1-yl)phenyl)piperidin-1-yl)methyl)-1-(3-fluoro-4-((6S)-2,3,6,9-tetramethyl-6H-thieno[3,2-f][1,2,4]triazolo[4,3-a][1,4]diazepin-4-yl)phenyl)piperidin-4-ol]", "values": [{"measurement": "GI50", "setting": "[1]", "value": "500 to 2500", "unit": "nM"}, {"measurement": "GI50", "setting": "[2]", "value": "50 to 500", "unit": "nM"}]}
{"smiles": "Cc1sc2c(c1C)C(c1ccc(N3CCC(O)(CN4CCC(c5cc(F)c([C@@H]6c7ccc(O)cc7CC[C@@H]6c6ccc(F)cc6)c(F)c5)CC4)CC3)cc1F)=N[C@@H](C)c1nnc(C)n1-2", "note": "[III-338, 4-((4-(3,5-difluoro-4-((1S,2S)-2-(4-fluorophenyl)-6-hydroxy-1,2,3,4-tetrahydronaphthalen-1-yl)phenyl)piperidin-1-yl)methyl)-1-(3-fluoro-4-((6S)-2,3,6,9-tetramethyl-6H-thieno[3,2-f][1,2,4]triazolo[4,3-a][1,4]diazepin-4-yl)phenyl)piperidin-4-ol]", "values": [{"measurement": "GI50", "setting": "[1]", "value": "500 to 2500", "unit": "nM"}, {"measurement": "GI50", "setting": "[2]", "value": "< 50", "unit": "nM"}]}
